Literature values, collected in PMC3792642 (Acta Crystallographica Section D: Biological Crystallography, 2013).

How the values were obtained:
Mtb = conditions: VKOR-dependent manner; ref Dutton et al., 2010; cited from earlier work
MtbVKOR = conditions: ref Dutton et al., 2010; cited from earlier work

CC(=O)CC(c1ccccc1)c1c(O)c2ccccc2oc1=O (centres unmarked) [warfarin]
Inhibition of growth of Mtb (Mtb): inhibit growth of Mtb | Inhibition of MtbVKOR (MtbVKOR): inhibit MtbVKOR
